Each block holds one compound with its values, some of them ahead of it. Active and inactive are the calls of the source.
Key:
[1] = P. falciparum Dd2 growth inhibitors, dose response, SYBR Green, cherry-picked samples (AID 1159567); assay type: functional, cell-based
[2] = inhibitors of HIV Env-driven cell fusion, dose response, cherry-pick (AID 652057); assay type: functional, cell-based
[3] = inhibitors of clade B AD8 Env fusion, dose response, cell-based, cherry-pick (AID 652062); assay type: functional;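 note: luciferase signal from cell-cell fusion driven by HIV-1 clade B AD8 Env; potency is for inhibitors of fusion seen as a drop in luminescence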
Cytochrome P450 3A4 = Cytochrome P450 3A4 (Homo sapiens, UniProt P08684); settings: Potency;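 note: confirmatory qHTS run detecting inhibitors and substrates of CYP3A4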
Fatty acid synthase [4] = molecular target: T1, Fatty acid synthase (Homo sapiens, UniProt P49327); assay: FAS thioesterase domain inhibitors, dose response, biochemical, endpoint fluorescence intensity, uHTS hits (AID 624327); assay type: functional;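 note: fluorescence from hydrolysis of an O-methyl fluorescein acyl ester substrate by the enzyme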
Fatty acid synthase [5] = molecular target: T1, Fatty acid synthase; assay: FAS thioesterase domain inhibitors, dose response, biochemical, kinetic fluorescence intensity (AID 624326); assay type: functional;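 note: rate of fluorescence rise from hydrolysis of a fluorogenic O-methyl fluorescein ester substrate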
[6] = Luminescence Cell-Based Dose Confirmation HTS to Identify Inhibitors of Platelet Dense Granule Release. [Related pubchem assays: 1663 (Primary HTS), 1678 (Summary of Project)]; assay type: functional
[7] = molecular target: Luciferin 4-monooxygenase (Photinus pyralis, UniProt P08659); assay: firefly luciferase enzyme inhibitors, dose response, biochemical, luminescence (AID 1891)
[8] = molecular target: T2, High affinity choline transporter 1 (Homo sapiens, UniProt Q9GZV3); assay: CHT inhibitors, dose response, cell-based, 5-point CRC, membrane potential dye (AID 504840); assay type: functional
T2 sequence (Q9GZV3 whole entry): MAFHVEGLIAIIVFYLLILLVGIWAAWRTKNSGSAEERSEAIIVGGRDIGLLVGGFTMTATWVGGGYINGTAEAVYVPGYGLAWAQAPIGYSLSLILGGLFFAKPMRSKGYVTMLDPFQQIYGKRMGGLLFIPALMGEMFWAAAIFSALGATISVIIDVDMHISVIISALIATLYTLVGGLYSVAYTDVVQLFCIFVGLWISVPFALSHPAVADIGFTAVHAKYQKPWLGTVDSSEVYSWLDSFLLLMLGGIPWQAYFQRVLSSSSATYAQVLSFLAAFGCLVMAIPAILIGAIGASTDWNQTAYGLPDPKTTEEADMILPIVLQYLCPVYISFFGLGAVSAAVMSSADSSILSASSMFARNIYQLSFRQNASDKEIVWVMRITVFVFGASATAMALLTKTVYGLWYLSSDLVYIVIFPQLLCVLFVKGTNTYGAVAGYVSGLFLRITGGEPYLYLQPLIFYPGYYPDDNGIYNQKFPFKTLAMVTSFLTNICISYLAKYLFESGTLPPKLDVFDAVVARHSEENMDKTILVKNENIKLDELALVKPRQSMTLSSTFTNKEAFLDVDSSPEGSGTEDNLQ

Paired box protein Pax-8 = Paired box protein Pax-8 (Homo sapiens, UniProt Q06710); assay: inhibitors of PAX8-driven TPO luciferase reporter, dose response, RMG-I cells, cherry-pick (AID 687027); assay type: functional, cell-based;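 note: luciferase reporter driven by Pax8 target thyroperoxidase promoter measured by SteadyGlo luminescence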
[9] = cytotoxicity toward NIH3T3 fibroblasts, dose response, counter-screen, cell-based, ATP luminescence, mouse fibroblasts (AID 2010); assay type: functional;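 note: cells exposed to compound for about 90 hours before reading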
Protein skinhead-1 = molecular target: T3, Protein skinhead-1 (Caenorhabditis elegans, UniProt P34707); assay type: functional
T3 sequence (P34707 whole entry): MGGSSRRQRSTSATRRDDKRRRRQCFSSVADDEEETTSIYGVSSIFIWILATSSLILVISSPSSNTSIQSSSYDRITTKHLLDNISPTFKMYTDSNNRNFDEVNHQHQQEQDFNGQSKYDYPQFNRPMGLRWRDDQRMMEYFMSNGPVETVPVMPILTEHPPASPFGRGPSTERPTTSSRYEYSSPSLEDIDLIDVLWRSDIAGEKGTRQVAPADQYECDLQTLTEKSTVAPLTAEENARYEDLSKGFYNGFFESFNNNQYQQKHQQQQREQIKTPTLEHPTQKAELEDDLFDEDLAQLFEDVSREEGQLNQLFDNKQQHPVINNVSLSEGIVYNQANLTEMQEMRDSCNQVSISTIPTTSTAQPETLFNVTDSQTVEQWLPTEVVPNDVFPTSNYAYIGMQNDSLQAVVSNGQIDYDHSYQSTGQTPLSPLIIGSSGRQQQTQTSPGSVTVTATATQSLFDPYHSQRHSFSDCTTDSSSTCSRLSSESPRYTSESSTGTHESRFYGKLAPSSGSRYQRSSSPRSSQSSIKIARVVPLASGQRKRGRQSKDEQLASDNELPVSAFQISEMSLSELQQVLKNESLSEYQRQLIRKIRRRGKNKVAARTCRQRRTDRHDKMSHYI

[10] = inhibitors of intracellular T. cruzi replication, confirmation, NIH3T3 host cells, beta-gal luminescence (AID 2044); assay type: functional, cell-based;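 note: intracellular parasites grown in NIH/3T3 mouse fibroblasts as host cells; luminescent beta-galactosidase reporter signal from transgenic T. cruzi replicating inside host cells; inhibitors lower the luminescence signal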

T1 sequence (P49327 whole entry, the tested form may be a part): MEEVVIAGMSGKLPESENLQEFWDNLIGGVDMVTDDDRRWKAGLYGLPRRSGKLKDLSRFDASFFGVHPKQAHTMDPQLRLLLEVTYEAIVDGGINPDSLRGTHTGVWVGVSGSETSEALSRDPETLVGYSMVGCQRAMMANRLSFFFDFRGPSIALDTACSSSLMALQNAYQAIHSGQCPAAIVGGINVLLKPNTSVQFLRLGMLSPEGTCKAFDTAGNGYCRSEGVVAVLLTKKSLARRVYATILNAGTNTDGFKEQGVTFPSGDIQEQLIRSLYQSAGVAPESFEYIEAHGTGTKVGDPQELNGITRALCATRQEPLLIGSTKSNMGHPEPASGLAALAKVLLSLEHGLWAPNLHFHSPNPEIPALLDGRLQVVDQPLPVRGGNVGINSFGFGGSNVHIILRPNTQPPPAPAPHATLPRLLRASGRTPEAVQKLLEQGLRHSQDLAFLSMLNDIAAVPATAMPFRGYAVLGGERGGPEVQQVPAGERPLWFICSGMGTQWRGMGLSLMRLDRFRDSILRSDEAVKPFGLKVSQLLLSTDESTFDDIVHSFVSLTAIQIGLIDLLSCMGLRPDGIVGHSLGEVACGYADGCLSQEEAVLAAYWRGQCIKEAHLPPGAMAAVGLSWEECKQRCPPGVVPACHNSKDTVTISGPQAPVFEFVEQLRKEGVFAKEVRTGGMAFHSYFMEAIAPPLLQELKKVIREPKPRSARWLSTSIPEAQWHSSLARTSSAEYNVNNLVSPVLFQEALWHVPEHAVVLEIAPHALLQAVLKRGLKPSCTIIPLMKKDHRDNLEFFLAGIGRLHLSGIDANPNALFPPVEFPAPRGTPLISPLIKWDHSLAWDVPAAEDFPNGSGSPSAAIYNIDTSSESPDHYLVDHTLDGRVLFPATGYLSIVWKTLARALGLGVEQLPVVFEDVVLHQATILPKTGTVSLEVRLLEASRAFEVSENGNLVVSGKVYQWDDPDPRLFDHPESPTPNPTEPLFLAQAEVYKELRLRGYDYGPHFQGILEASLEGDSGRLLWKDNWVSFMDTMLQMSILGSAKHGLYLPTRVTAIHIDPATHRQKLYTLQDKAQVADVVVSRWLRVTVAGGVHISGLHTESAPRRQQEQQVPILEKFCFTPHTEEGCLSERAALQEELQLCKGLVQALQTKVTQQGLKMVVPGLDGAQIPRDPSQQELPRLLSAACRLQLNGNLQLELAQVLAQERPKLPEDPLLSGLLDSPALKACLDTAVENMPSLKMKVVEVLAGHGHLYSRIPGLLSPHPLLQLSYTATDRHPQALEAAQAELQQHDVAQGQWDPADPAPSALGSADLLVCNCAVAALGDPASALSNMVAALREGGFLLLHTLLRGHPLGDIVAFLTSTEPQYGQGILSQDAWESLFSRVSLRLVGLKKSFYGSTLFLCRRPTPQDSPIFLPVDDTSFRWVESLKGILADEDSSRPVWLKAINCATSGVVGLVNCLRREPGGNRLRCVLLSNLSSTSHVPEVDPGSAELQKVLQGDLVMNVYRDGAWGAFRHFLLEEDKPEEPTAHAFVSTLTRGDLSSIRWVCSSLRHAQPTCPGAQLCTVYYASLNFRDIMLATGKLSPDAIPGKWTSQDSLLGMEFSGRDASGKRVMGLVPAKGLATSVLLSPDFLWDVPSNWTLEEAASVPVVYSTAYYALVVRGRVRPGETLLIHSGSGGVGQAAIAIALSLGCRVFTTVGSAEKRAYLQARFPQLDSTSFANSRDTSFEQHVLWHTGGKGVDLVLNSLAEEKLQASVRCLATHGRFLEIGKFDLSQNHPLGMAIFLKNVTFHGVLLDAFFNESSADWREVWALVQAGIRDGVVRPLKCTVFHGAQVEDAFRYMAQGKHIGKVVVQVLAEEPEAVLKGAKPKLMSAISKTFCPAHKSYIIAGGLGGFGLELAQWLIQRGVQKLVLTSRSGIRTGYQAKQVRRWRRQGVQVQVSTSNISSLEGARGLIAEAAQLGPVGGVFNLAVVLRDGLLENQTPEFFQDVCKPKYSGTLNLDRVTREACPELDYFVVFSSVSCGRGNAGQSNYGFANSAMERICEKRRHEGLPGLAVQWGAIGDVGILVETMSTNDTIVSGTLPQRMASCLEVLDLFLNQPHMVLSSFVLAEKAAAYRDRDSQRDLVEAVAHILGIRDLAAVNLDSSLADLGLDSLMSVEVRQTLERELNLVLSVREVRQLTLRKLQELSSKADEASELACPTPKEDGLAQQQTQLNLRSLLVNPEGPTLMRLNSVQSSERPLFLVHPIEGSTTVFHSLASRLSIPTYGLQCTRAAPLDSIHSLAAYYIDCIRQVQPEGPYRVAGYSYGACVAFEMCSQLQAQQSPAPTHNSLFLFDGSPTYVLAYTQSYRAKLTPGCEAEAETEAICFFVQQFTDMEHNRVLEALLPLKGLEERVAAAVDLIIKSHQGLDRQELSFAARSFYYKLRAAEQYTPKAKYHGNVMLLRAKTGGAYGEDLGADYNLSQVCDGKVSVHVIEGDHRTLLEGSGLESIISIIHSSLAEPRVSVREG
Sequence of Luciferin 4-monooxygenase (P08659 whole entry): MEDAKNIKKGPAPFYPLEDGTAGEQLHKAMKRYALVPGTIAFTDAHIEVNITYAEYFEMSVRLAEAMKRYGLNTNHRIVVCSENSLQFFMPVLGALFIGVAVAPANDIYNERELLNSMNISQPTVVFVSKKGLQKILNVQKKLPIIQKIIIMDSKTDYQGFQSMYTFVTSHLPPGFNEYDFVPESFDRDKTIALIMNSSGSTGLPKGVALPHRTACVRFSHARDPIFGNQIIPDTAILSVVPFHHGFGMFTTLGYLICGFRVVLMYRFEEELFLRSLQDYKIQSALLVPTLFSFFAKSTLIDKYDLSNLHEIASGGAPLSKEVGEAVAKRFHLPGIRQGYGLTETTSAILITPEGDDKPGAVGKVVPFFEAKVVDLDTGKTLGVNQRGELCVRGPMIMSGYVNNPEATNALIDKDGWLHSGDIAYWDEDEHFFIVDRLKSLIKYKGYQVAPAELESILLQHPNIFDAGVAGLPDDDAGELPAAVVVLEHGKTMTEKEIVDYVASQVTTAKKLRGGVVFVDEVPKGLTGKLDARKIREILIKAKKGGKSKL
Sequence of Paired box protein Pax-8 (Q06710 whole entry): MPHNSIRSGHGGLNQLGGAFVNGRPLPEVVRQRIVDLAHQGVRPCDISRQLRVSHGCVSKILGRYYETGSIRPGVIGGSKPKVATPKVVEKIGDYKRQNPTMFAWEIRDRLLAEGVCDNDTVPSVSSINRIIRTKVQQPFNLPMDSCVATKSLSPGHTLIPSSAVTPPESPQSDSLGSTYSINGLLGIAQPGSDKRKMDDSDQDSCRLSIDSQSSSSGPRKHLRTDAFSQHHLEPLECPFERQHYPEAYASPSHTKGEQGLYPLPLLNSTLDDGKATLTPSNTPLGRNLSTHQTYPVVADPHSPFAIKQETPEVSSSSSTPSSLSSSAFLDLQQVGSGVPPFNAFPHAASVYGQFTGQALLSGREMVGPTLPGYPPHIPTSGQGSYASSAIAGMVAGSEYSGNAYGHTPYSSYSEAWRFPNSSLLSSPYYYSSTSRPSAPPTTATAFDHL
Sequence of Cytochrome P450 3A4 (P08684 whole entry, the tested form may be a part): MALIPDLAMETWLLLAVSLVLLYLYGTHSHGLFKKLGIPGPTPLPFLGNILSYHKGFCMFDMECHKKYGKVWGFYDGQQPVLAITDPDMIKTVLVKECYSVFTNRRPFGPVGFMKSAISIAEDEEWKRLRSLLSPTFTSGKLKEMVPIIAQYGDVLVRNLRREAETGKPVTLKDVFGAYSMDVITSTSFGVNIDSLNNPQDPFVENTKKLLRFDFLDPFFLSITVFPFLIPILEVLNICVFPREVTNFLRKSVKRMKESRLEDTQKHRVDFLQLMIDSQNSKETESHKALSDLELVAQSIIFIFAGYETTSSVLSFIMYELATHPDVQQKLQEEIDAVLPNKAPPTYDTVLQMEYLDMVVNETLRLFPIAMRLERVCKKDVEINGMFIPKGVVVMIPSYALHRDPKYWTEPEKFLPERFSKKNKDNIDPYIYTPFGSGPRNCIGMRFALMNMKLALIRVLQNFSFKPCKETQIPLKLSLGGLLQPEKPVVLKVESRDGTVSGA

Structure (SMILES): C[C@@H]1CN([C@H](C)CO)S(=O)(=O)c2ccc(C#Cc3ccccc3)cc2O[C@H]1CN(C)S(=O)(=O)c1cn(C)cn1
AC50 [1]: 3.7 µM (active)

Structure (SMILES): CC(C)(C)OC(=O)N1CCc2onc(-c3ccc(Br)cc3)c2C1=O
AC50 [2]: 64.9 µM (active) | AC50 [3]: 59.9 µM (active)

AC50 (Cytochrome P450 3A4): 15.8 µM (inconclusive)
Structure (SMILES): CCCn1c(C)nc2c(NCc3ccccc3)nc(C)nc21

IC50 (Fatty acid synthase [4]): 11.7 µM (active) | IC50 (Fatty acid synthase [5]): 9.36 µM (active)
Structure (SMILES): O=C(Nc1c(C(=O)N2CCOCC2)cnn1-c1ccccc1)c1ccc([N+](=O)[O-])cc1

IC50 (Fatty acid synthase [4]): 5.11 µM (active) | IC50 (Fatty acid synthase [5]): 6.9 µM (active)
Structure (SMILES): Cc1ccc(S(=O)(=O)Nc2cccc(-c3ccc(N4CCCCCC4)nn3)c2)c(C)c1

Structure (SMILES): Cc1cccc(OCC(=O)Nc2nc[nH]n2)c1C
EC50 [6]: > 112 µM (not active)

EC50 [7]: > 112 µM (not active)
Structure (SMILES): Cc1cccc(OCC(=O)Nc2nnc[nH]2)c1C

Structure (SMILES): CCOC(=O)N1CCN(Cc2nc3c(c(=O)n(C)c(=O)n3C)n2Cc2cccc3ccccc23)CC1
EC50 [6]: > 112 µM (not active) | EC50 [7]: > 112 µM (not active)

Structure (SMILES): COc1cccc(S(=O)(=O)N2CCC3(CC2)CN[C@@H](CO)c2[nH]c4cc(OC)ccc4c23)c1
AC50 [1]: 5.39 µM (active)

Structure (SMILES): CCOC(=O)NCCc1ccc(OC)cc1
EC50 [6]: > 112 µM (not active) | EC50 [7]: > 112 µM (not active)

IC50 (Fatty acid synthase [4]): 2.69 µM (active) | IC50 (Fatty acid synthase [5]): 2.31 µM (active)
Structure (SMILES): O=C(/C=C/c1cccc([N+](=O)[O-])c1)N1CCN(S(=O)(=O)c2cccs2)CC1

Structure (SMILES): COc1ccc(CN2C[C@H](C)[C@H](OC)CN(C)C(=O)c3cc(NC(=O)c4nc5ccccc5s4)ccc3OC[C@@H]2C)cc1
AC50 [1]: 5.29 µM (active)

IC50 (Fatty acid synthase [4]): 5.09 µM (active) | IC50 [8]: 12.6 µM (active) | IC50 (Fatty acid synthase [5]): 5.75 µM (active)
Structure (SMILES): CCCCCc1nc2sc3c(c2c(=O)n1NC(=O)c1ccc([N+](=O)[O-])cc1)CC(C)(C)OC3

IC50 (Fatty acid synthase [4]): 1.83 µM (active) | IC50 (Fatty acid synthase [5]): 4.26 µM (active)
Structure (SMILES): COc1ccc(C(=O)N/C(=C\c2cn(S(=O)(=O)N(C)C)c3ccccc23)C(=O)N2CCOCC2)cc1

AC50 (Paired box protein Pax-8): 11.9 µM (active)
Structure (SMILES): C[C@H](CO)N1C[C@H](C)[C@@H](CN(C)Cc2ccc(C(F)(F)F)cc2)Oc2ccc(NS(=O)(=O)c3ccc(F)cc3)cc2CC1=O

Structure (SMILES): CCOC(=O)N1CCN(CC(=O)N2CCC(C(N)=O)CC2)CC1
EC50 [6]: > 112 µM (not active) | EC50 [7]: > 112 µM (not active)

Structure (SMILES): C[C@H](CO)N1C[C@H](C)[C@H](CN(C)C(=O)C2CC2)Oc2cc(C#Cc3ccccc3)ccc2S1(=O)=O
AC50 [1]: 4.27 µM (active)

IC50 (Fatty acid synthase [4]): 10.5 µM (active) | IC50 (Fatty acid synthase [5]): 10.7 µM (active)
Structure (SMILES): CCc1cccc(C)c1NC(=O)COC(=O)c1cc([N+](=O)[O-])ccc1N1CCOCC1

IC50 (Fatty acid synthase [4]): 30 µM (inactive) | IC50 (Fatty acid synthase [5]): 60.6 µM (inactive)
Structure (SMILES): CCC(C)NC(=O)CSc1nc2c(sc(=S)n2Cc2ccco2)c(=O)n1-c1ccccc1 (configuration not stated)

Structure (SMILES): CC1=C(C(=O)c2ccccc2)C(c2cn(-c3ccccc3)nc2-c2ccc(Cl)cc2)NC(S)=N1 (configuration not stated)
EC50 [9]: > 30 µM (not active) | IC50 (Protein skinhead-1): > 100 µM (inactive) | EC50 [10]: 2.33 µM (active)

IC50 (Protein skinhead-1): 43.9 µM (active)
Structure (SMILES): Clc1ccc(OCCSc2ncccn2)cc1

Structure (SMILES): CCOC(=O)[C@@H]1[C@H]2COc3ccc(Br)cc3[C@@H]2N2C(=O)N(c3cccc(Cl)c3)C(=O)[C@@]12C
IC50 (Fatty acid synthase [4]): 22.9 µM (inactive) | IC50 (Fatty acid synthase [5]): 11.8 µM (active)

Structure (SMILES): COc1ccc(NC(=O)N(C)C[C@H]2OCc3ccccc3-c3c(n(C)c4ccccc34)C(=O)N([C@@H](C)CO)C[C@H]2C)c(OC)c1
AC50 [1]: 4.92 µM (active)

AC50 (Paired box protein Pax-8): 2.87 µM (active)
Structure (SMILES): C[C@@H]1CCCCO[C@H](CN(C)S(=O)(=O)c2ccc(Cl)cc2)[C@@H](C)CN([C@@H](C)CO)C(=O)c2cc(NC(=O)Nc3ccc(C(F)(F)F)cc3)ccc2O1

Structure (SMILES): C[C@H](CO)N1C[C@H](C)[C@@H](CN(C)Cc2ccc(Oc3ccccc3)cc2)Oc2ccc(NS(=O)(=O)c3cn(C)cn3)cc2CC1=O
AC50 [1]: 9.82 µM (active)

Structure (SMILES): COCCn1cc(C(=O)N2CCC(C)CC2)c2c3ccccc3n(C)c2c1=O
EC50 [6]: > 112 µM (not active) | EC50 [7]: > 112 µM (not active)
